Measured values: PubChem BioAssay (NCI)
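Compound exposure: 48 hours, 5 concentrations, 96-well plates. GI50 marks 50% less growth. Definition used: TGI = concentration required for complete inhibition of growth.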

How the values were obtained:
Test in all cases: NCI tumour cell line growth inhibition, 48 h
SW-620 colon = tested on: SW-620 colon
LOX IMVI melanoma = tested on: LOX IMVI melanoma
SNB-75 CNS = tested on: SNB-75 CNS
KM12 colon = tested on: KM12 colon
HS 578T breast = tested on: HS 578T breast
SR leukemia = tested on: SR leukemia
M14 melanoma = tested on: M14 melanoma
MOLT-4 leukemia = tested on: MOLT-4 leukemia
DU-145 prostate = tested on: DU-145 prostate
SK-MEL-2 melanoma = tested on: SK-MEL-2 melanoma
SK-MEL-28 melanoma = tested on: SK-MEL-28 melanoma
SF-268 CNS = tested on: SF-268 CNS
CCRF-CEM leukemia = tested on: CCRF-CEM leukemia
MCF7 breast = tested on: MCF7 breast
HOP-62 NSCLC = tested on: HOP-62 NSCLC
NCI/ADR-RES ovarian = tested on: NCI/ADR-RES ovarian
NCI-H460 lung = tested on: NCI-H460 lung
UACC-62 melanoma = tested on: UACC-62 melanoma
UO-31 renal = tested on: UO-31 renal
NCI-H522 lung = tested on: NCI-H522 lung
SNB-19 CNS = tested on: SNB-19 CNS
RXF 393 renal = tested on: RXF 393 renal
786-0 renal = tested on: 786-0 renal
SN12C renal = tested on: SN12C renal
TK-10 renal = tested on: TK-10 renal
A549 NSCLC = tested on: A549 NSCLC
K-562 leukemia = tested on: K-562 leukemia
BT-549 breast = tested on: BT-549 breast
OVCAR-5 ovarian = tested on: OVCAR-5 ovarian
MDA-MB-435 = tested on: MDA-MB-435

COP(=O)(CC(F)(F)C(F)(F)F)OC
TGI (SW-620 colon): 4.2 µM | GI50 (LOX IMVI melanoma): 1.7 µM | TGI (LOX IMVI melanoma): 3.54 µM | GI50 (SNB-75 CNS): 4.93 µM | TGI (SNB-75 CNS): 55.3 µM | GI50 (KM12 colon): 19.4 µM | TGI (KM12 colon): 40.1 µM | GI50 (HS 578T breast): 15.1 µM | TGI (HS 578T breast): 79.4 µM | GI50 (SR leukemia): 3.15 µM | TGI (SR leukemia): 12.2 µM | GI50 (M14 melanoma): 1.8 µM | TGI (M14 melanoma): 3.77 µM | GI50 (MOLT-4 leukemia): 3.06 µM | TGI (MOLT-4 leukemia): 10.8 µM | GI50 (DU-145 prostate): 10.5 µM | TGI (DU-145 prostate): 24.5 µM | GI50 (SK-MEL-2 melanoma): 16.3 µM | TGI (SK-MEL-2 melanoma): 38.4 µM | GI50 (SK-MEL-28 melanoma): 1.87 µM | TGI (SK-MEL-28 melanoma): 3.89 µM | GI50 (SF-268 CNS): 24.2 µM | TGI (SF-268 CNS): 64.2 µM | GI50 (CCRF-CEM leukemia): 2.43 µM | TGI (CCRF-CEM leukemia): 8.68 µM | GI50 (MCF7 breast): 2.05 µM | TGI (MCF7 breast): 10.5 µM | GI50 (HOP-62 NSCLC): 22.7 µM | TGI (HOP-62 NSCLC): 52.7 µM | GI50 (NCI/ADR-RES ovarian): 2.83 µM | TGI (NCI/ADR-RES ovarian): 10.2 µM | GI50 (NCI-H460 lung): 18 µM | TGI (NCI-H460 lung): 38.1 µM | GI50 (UACC-62 melanoma): 4.95 µM | TGI (UACC-62 melanoma): 18 µM | GI50 (UO-31 renal): 1.71 µM | TGI (UO-31 renal): 3.64 µM | GI50 (NCI-H522 lung): 1.48 µM | TGI (NCI-H522 lung): 3.02 µM | GI50 (SNB-19 CNS): 24.8 µM | TGI (SNB-19 CNS): 77 µM | GI50 (RXF 393 renal): 1.33 µM | TGI (RXF 393 renal): 2.92 µM | GI50 (786-0 renal): 6.27 µM | TGI (786-0 renal): 20.4 µM | GI50 (SN12C renal): 18.5 µM | TGI (SN12C renal): 37.5 µM | GI50 (TK-10 renal): 3.08 µM | TGI (TK-10 renal): 7.36 µM | GI50 (A549 NSCLC): 22.1 µM | TGI (A549 NSCLC): 53.1 µM | GI50 (K-562 leukemia): 2.93 µM | TGI (K-562 leukemia): 14.3 µM | GI50 (BT-549 breast): 6.26 µM | TGI (BT-549 breast): 20.4 µM | GI50 (OVCAR-5 ovarian): 17.5 µM | TGI (OVCAR-5 ovarian): 32.2 µM | GI50 (MDA-MB-435): 6.7 µM | TGI (MDA-MB-435): 22.4 µM
